According to PubChem BioAssay (NCI):
Values joined by “and” are separate entries in the source; they are usually repeats but may differ in a detail not shown here. Identical values can stand only once.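 All cell lines were grown in 96-well plates and treated with compound for 48 hours. GI50: concentration for 50% inhibition of growth. The concentration for full growth arrest is given as TGI.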

How the values were obtained:
Assay in all cases: inhibition of tumour cell growth, NCI panel, 48 h
786-0 renal = test system: 786-0 renal
A498 renal = test system: A498 renal
KM12 colon = test system: KM12 colon
MALME-3M melanoma = test system: MALME-3M melanoma
NCI-H226 lung = test system: NCI-H226 lung
SF-268 CNS = test system: SF-268 CNS
T-47D breast = test system: T-47D breast
UACC-62 melanoma = test system: UACC-62 melanoma
OVCAR-8 ovarian = test system: OVCAR-8 ovarian
HS 578T breast = test system: HS 578T breast

Structure (SMILES)	GI50 (786-0 renal)	TGI (786-0 renal) [µM]	GI50 (A498 renal)	TGI (A498 renal) [µM]	GI50 (KM12 colon)	TGI (KM12 colon) [µM]	GI50 (MALME-3M melanoma) [µM]	TGI (MALME-3M melanoma) [µM]	GI50 (NCI-H226 lung)	TGI (NCI-H226 lung) [µM]	GI50 (SF-268 CNS)	TGI (SF-268 CNS) [µM]	GI50 (T-47D breast) [µM]	TGI (T-47D breast) [µM]	GI50 (UACC-62 melanoma)	TGI (UACC-62 melanoma) [µM]	TGI (OVCAR-8 ovarian) [µM]	TGI (HS 578T breast) [µM]	GI50 (HS 578T breast)	GI50 (OVCAR-8 ovarian)
CC1=C([Se]CC(OC(=O)[C@@H](CO)NC(=O)OC(C)(C)C)C(=O)NC(C)(C)C)C(=O)c2ccccc2C1=O (some centres undefined)	1.95 µM	3.39	3.64 µM	15.2	1.5 µM	2.89	2.04	3.77	1.96 µM	4.21	1.89 µM	3.34	0.332	1.06	1.66 µM	3.05	–	–	–	–
O=C(Nc1ccccc1Br)c1cccc([N+](=O)[O-])c1O	–	> 41	–	9.05	–	19.3	–	7.38	–	14.8	–	> 100	–	–	–	16.4	> 71.4	–	–	–
Cc1ccccc1N=Nc1c(O)[nH]c2ccccc12	–	> 100	–	–	–	> 100	–	–	–	> 100	–	> 100	–	> 100	–	> 100	> 100	> 100	–	–
COc1ccc(-c2cc(/C=C3\C(=O)Nc4ccc(OC)cc43)[nH]n2)cc1	> 100 µM	> 100	–	–	1.62 µM	> 100	> 100	> 100	> 100 µM	> 100	27.4 µM	> 100	> 100	> 100	6.43 µM	> 100	> 100	> 100	16.8 µM	19.5 µM
N#CC(C#N)=CSc1ccccc1	–	34.5	–	–	–	> 100	–	–	–	51.2	–	54.1	–	–	–	82.2	37.1	–	–	–
O=C(O)CCC1(Br)CCCCC(Br)C1=O (centres undefined)	–	> 100	–	> 100	–	–	–	> 100	–	> 100	–	> 100	–	–	–	> 100	> 100	–	–	–
N#Cc1cccc(NC(=O)c2oc3ccccc3c2-c2cnn(-c3ccccc3)c2)c1	221 µM	> 500	–	–	> 500 µM	> 500	278	> 500	> 500 µM	> 500	304 µM	> 500	–	–	> 500 µM	> 500	> 500	> 500	171 µM	> 500 µM
O=C(O)C1c2ccccc2C(C(=O)O)c2ccccc21 (centres undefined)	–	> 100	–	> 100	–	> 100	–	> 100	–	–	–	> 100	–	–	–	> 100	> 100	–	–	–
CCOC(=O)C1=C(C)NC2SC(=O)/C(=C\c3ccccc3)N2C1c1ccccc1 (centres undefined)	> 100 µM	> 100	> 100 µM	> 100	73.7 µM	> 100	–	–	> 100 µM	> 100	> 100 µM	> 100	38.2	> 100	> 100 µM	> 100	> 100	> 100	> 100 µM	> 100 µM
C=C1C(=O)O[C@@H]2C[C@@H]1CC[C@@]1(C)O[C@@H]1CC[C@@]1(C)O[C@@H]1CC[C@@]2(C)O	19.2 µM	42.2	–	–	26.2 µM	> 100	16.2	42.3	16.9 µM	35.9	40.5 µM	> 100	2.09	17	14.6 µM	30.2	> 100	61.2	21.6 µM	29 µM
O=C(O)C#CCO	–	> 100	–	> 100	–	> 100	–	> 100	–	–	–	> 100	–	–	–	> 100	> 100	–	–	–
CCc1c(Cl)nc(Cl)nc1Cl	–	3.71	–	16.8	–	4.16	–	0.718	–	0.283	–	2.03	–	1.7	–	2.28	44.4	–	–	–
O=c1c2ccccc2c(=O)c2c1cc(Cl)c1[nH]c3c([nH]c12)c(Cl)cc1c(=O)c2ccccc2c(=O)c13	–	> 100	–	> 100	–	> 100	–	> 100	–	> 100	–	> 100	–	–	–	> 100	> 100	–	–	–
CNc1ccc(-c2cc(=O)oc3ccc(Cl)cc23)cc1	0.133 µM and 0.0442 µM	> 100	0.0811 µM and 0.0598 µM	–	0.0506 µM and 0.0433 µM	> 100	–	–	0.719 µM and 4.05 µM	> 100	0.247 µM and 0.066 µM	> 100	–	–	0.0369 µM and 0.0431 µM	89.7	> 100	–	0.083 µM and 0.0725 µM	0.601 µM and 0.197 µM
N#CCC(=O)N/N=C1\C(=O)N(c2ccc(Cl)cc2)C(=O)C(=O)C1c1nc2ccccc2o1 (centres undefined)	–	> 100	–	> 100	–	> 100	–	> 100	–	> 100	–	> 100	–	–	–	> 100	> 100	–	–	–
Clc1ccc(OC2CCO2)cc1Cl (centres undefined)	–	> 100	–	> 100	–	> 100	–	> 100	–	> 100	–	> 100	–	–	–	> 100	> 100	–	–	–
COC(=O)[C@@]1(C)CC[C@]2(C)CC[C@]3(C)C4=CC=C5C(=CC(=O)C(O)=C5C)[C@]4(C)CC[C@@]3(C)[C@@H]2C1	0.172 µM	0.315	0.333 µM	0.938	0.369 µM	1.49	0.232	0.446	0.294 µM	0.739	0.341 µM	1.23	–	–	0.202 µM	0.467	–	1.52	0.289 µM	–
C/C(=N/NC(=O)C(N)=O)C(CC(C(=O)Nc1ccccc1C)/C(C)=N\NC(=O)C(N)=O)C(=O)Nc1ccccc1C (centres undefined)	–	> 100	–	> 100	–	> 100	–	> 100	–	> 100	–	> 100	–	–	–	–	> 100	–	–	–
COC(=O)C1CCC(Nc2cccc(C(F)(F)F)c2)=N1 (centres undefined)	–	> 100	–	> 100	–	> 100	–	> 100	–	> 100	–	> 100	–	–	–	> 100	> 100	–	–	–
Cc1cc(NS(=O)(=O)c2ccc(NC(=O)c3cccc4c(Nc5ccc(S(=O)(=O)Nc6cc(C)on6)cc5)c5ccccc5nc34)cc2)no1	–	89.8	–	> 100	–	> 100	–	> 100	–	–	–	> 100	–	–	–	35	> 100	–	–	–
